Measurements published in patent US20220160652A1, “USE OF VITAMIN K IN COMBINATION WITH ANTICOAGULANTS” (KAYDENCE PHARMA AS, priority 2019, published 2022).

Key:
Format in all cases: cell-based
[1] = test system: VSMCs; experiment: Oxidative stress in VSMCs (DCFDA fluorescence); settings: 10 μM, fluorescence measured for 6 hours
Experimental: It is known that the level of reactive oxygen species in cells can be measured by measuring the conversion of 2′,7′—dichlorofluorescein diacetate (DCFDA) to the fluorescent dye 2′,7′-dichlorofluorescein (DCF). The fluorescence generated by cells subjected to DCFDA is directly proportional to the amount of oxidized DCFDA to DCF.
To perform the study, VSMCs (10,000 cells/well) were plated in a 96-well plate and left to adhere overnight. Next, cells were incubated for 1 hour with 20 μM DCFDA. The medium was then changed to medium supplemented with 10 μM vitamin K2 (MK-7). To visualize intracellular oxidative stress, fluorescence was measured for 6 hours and fluorescence intensity was normalized for cell count.

[2] = test system: VSMCs; experiment: Hypoxia (CoCl2) induced oxidative stress in VSMCs (DCFDA); settings: 10 μM, after 50 μM CoCl2 for 19 hours
Experimental: This study was performed to determine whether intracellular oxidative stress in VSCMs is derived from mitochondrial dysfunction. To perform this study, VSMCs were incubated with cobalt chloride, a known stabilizer of HIF1a. Cobalt chloride binding to HIF1a prevents the degradation of HIF1a and thus results in a cellular hypoxia state. HIF1a has been implicated in cancer biology as well as a number of other pathophysiologies, specifically in areas of vascularization and angiogenesis, energy metabolism, cell survival, and tumor invasion. Under normal circumstances, after injury, HIF1a is degraded by the enzyme prolyl hydroxylase (PHD). The continued up-regulation of HIF1 a (mimicked by cobalt chloride) promotes tumor growth and metastasis through its role in initiating angiogenesis and regulating cellular metabolism to overcome hypoxia. Hypoxia promotes apoptosis in both normal and tumor cells. Additionally, hypoxia generates significant intracellular oxidative stress.
To perform the study, VSMCs (10,000 cells/well) were plated in a 96-well plate and left to adhere overnight. Next, the medium was changed to a medium supplemented with 50 μM CoCl2 for 19 hours. The next day, cells were washed and incubated for 1 hour with 20 μM DCFDA in the presence of a vehicle (solvent for CoCl2 and vitamin K2 (MK-7)/UQ10), 10 μM vitamin K2 (MK-7), or 10 μM UQ10 in medium. The medium was then changed to a medium supplemented with vehicle, vitamin K2 (MK-7)/UQ10, or CoCl2, and fluorescent was measured for 6 hours. Fluorescence intensity was normalized for cell count.

[3] = test system: human vascular smooth muscle cells (hVSMCs); experiment: Vitamin K2 (MK-7) and ATP pathway: ATP luminescence with warfarin; settings: warfarin 50 μM with vitamin K2 (MK-7) 10 μM, 24 hours
Experimental: This study was performed in order to determine the effect of vitamin K2 (MK-7) on warfarin-induced oxidative stress in muscles. To perform this study, human vascular smooth muscle cells (hVSMCs; 5,000 cells/well) were plated in 96-well dark plates and left to adhere overnight. Next, cells were incubated for 24 hours with either vehicle only (as blank control), warfarin (10 or 50 μM), vitamin K2 (MK-7) (10 μM), or a combination of warfarin (50 μM) and vitamin K2 (MK-7) (10 μM). Hoechst was added to correct for cell number (1 μg/mL). Next, ATP was measured using mammalian lysis buffer for 5 minutes after which 50 μL ATP substrate solution was added to the wells and incubated for 10 minutes in a dark environment. Finally, medium was transferred to a white plate to measure luminescence.

[4] = test system: VSMCs; experiment: ATP increase, 24 h incubation (luminescence); settings: 10 μM, p=0.014 for MK-7
Experimental: This study was performed to determine if vitamin K2 (MK-7) affects ATP generation. ATP is generated via glycolysis in the cytoplasm and via both the Krebs-cycle and oxidative phosphorylation in the mitochondria. ATP generation via glycolysis delivers only 2 ATP, whereas ATP generation in the mitochondria generates some 32 ATP.
(§1) To perform this study, VSCMs (5000 cells/well) were plated in 96-well plates and left to adhere overnight. Next, cells were incubated for 24 hours with either vehicle, vitamin K2 (MK-7) (10 μM), or UQ10 (10 μM). Hoechst was added to correct for cell number (1 μg/mL). Next, ATP was measured using mammalian lysis buffer for 5 minutes after which 50 μL ATP substrate solution was added to the wells and incubated for 10 minutes in a dark environment. Finally, the medium was transferred to a white plate to measure luminescence

[5] = test system: VSMCs; experiment: ATP increase, 48 h incubation with CoCl2 comparison (luminescence); settings: 10 μM, vs CoCl2 100 μM
Experimental: as §1, with “This study was performed to further investigate the origin of ATP production that is influenced by vitamin K2 (MK-7). To” for “To”, “for 48” for “for 24”, “vehicle, CoCl2 (100 μM),” for “vehicle,”, “5 minutes,” for “5 minutes”, “Finally,” for “Finally, the”, “measure luminescence.” for “measure luminescence”

[6] = test system: VSMCs; experiment: Vitamin K2 (MK-7) and hypoxia: ATP on co-treatment with CoCl2; settings: co-treatment CoCl2 100 μM and 10 μM, 24 hours
Experimental: This study was performed to investigate whether vitamin K2 (MK-7) can prevent the hypoxia-induced decrease in ATP (CoCl2 treatment, thereby stabilization of HIF1a). To perform this study, VSMCs were co-treated with CoCl2 and vitamin K2 (MK-7).
as §1, with “First,” for “To perform this study,”, “CoCl2 (100 μM) or CoCl2 and” for “vehicle,”, “(MK-7)” for “(MK-7) (10 μM),”, “together (100 and 10 μM, respectively). Next, ATP was measured and corrected for cell numbers. CoCl2 values were set as relative to CoCl2 co-treated with vitamin K2 (MK-7) or UQ10.” for “(10 μM).”, “Finally,” for “Finally, the”, “luminescence.” for “luminescence”

CC(C)=CCC/C(C)=C/CC/C(C)=C/CC/C(C)=C/CC/C(C)=C/CC/C(C)=C/CC/C(C)=C/CC1=C(C)C(=O)c2ccccc2C1=O [vitamin K2 (MK-7)]
oxidative stress in VSMCs (DCF fluorescence) [1]: clearly reduced the oxidative stress | hypoxia induced oxidative stress (counteraction) [2]: seems to counteract hypoxia induced oxidative stress | oxidative stress induced by warfarin [3]: counteracted the oxidative stress induced by warfarin | ATP production in VSMCs compared to the vehicle [4]: increased ATP production in VSMCs significantly | ATP levels compared to CoCl2 [5]: significant higher ATP levels | prevention of hypoxia-induced (CoCl2) decrease in ATP generation [6]: could (partially) prevent the decreased ATP generation
